Values after ≈ are worked out from the molar mass of the structure shown. Where two headings read alike, the source gives them in different places.
How the values were obtained:
[1] = in vitro; conditions: African green monkey, Vero cytotoxicity
Experimental: (§1) Compounds were solubilized in DMSO and assayed as a 10-point 3-fold serial dilution. Compounds were incubated with cells for 2 days at 37 °C, 5% CO2. CellTiter-Glo Reagent (Promega) was added and relative luminescent units (RLU) measured.

[2] = molecular target: CYP2C19 (Homo sapiens, UniProt P33261); assay: in vitro
[3] = tested on: Vero cells; assay: cells; conditions: Chlorocebus sabaeus, read-out: VERO IC50
Experimental: as §1

[4] = tested on: Madin Darby Canine Kidney (MDCK)
[5] = tested on: M. tuberculosis H37Rv; assay: microbe, parasite or virus in culture; assay type: cell-based, Mycobacterium tuberculosis
[6] = molecular target: T1, CYP 1A2 (Homo sapiens, UniProt P05177); assay: CYP inhibition 1A2
T1 sequence (P05177 1-516): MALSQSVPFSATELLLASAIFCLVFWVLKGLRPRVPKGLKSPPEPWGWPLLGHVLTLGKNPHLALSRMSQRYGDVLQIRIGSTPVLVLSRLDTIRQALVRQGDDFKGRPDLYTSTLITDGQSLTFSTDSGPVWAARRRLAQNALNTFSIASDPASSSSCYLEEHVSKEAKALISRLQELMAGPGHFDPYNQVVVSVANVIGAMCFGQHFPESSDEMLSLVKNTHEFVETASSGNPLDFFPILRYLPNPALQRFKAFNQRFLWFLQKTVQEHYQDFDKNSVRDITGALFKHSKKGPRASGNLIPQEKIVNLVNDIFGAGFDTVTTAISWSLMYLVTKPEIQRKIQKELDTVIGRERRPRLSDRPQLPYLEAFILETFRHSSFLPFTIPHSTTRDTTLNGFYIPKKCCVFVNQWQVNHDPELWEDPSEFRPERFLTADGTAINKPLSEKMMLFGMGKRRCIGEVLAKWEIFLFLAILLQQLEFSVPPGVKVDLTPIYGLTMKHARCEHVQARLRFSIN

[7] = molecular target: CYP 2D6 (Homo sapiens, UniProt P10635); assay: biochemical
[8] = microsomes
[9] = female, C57 Black, mouse, in vivo, iv, 3 mg/kg
Experimental: (§2) Test compound was dosed as a bolus solution intravenously at 3 mg of free base/kilogram (dose volume 5 mL/kg; dose vehicle Saline or 10% DMSO; 40% PEG400; 50% saline) to female C57 Black (n = 3) or dosed orally by gavage as a solution at 10 mg of free base/kilogram (dose volume 10 mL/kg; dose vehicle 10% DMSO; 40% PEG400; 50% distilled water) to female C57 Black (n = 3/dose level). Blood samples were taken from each mouse tail vein at predetermined time points postdose, mixed with two volumes of distilled water, and stored frozen until UPLC/MS/MS analysis. Pharmacokinetic parameters were derived from the blood concentration time curve using PK Solutions software v 2.0 (Summit Research Services, USA).

[10] = in vitro; conditions: dog, MDCK-MDR1
[11] = molecular target: CYP2C9 (Homo sapiens, UniProt P11712); assay: in vitro
[12] = in vivo; conditions: female, C57 Black, mouse
Experimental: as §2

CYP2C19, sequence (P33261 whole entry): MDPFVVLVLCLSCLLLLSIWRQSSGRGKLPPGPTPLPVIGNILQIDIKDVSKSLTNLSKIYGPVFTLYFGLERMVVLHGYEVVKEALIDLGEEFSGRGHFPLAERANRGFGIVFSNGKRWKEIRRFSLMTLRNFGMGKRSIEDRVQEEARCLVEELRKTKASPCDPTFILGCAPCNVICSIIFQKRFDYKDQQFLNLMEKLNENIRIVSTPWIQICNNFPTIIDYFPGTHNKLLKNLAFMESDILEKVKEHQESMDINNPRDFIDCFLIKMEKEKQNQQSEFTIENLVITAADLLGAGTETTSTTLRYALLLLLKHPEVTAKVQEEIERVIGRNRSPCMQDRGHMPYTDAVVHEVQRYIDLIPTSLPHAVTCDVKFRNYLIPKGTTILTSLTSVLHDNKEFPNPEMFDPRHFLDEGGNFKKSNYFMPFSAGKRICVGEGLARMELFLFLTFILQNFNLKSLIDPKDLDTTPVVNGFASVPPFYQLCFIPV
CYP 2D6, sequence (P10635 whole entry): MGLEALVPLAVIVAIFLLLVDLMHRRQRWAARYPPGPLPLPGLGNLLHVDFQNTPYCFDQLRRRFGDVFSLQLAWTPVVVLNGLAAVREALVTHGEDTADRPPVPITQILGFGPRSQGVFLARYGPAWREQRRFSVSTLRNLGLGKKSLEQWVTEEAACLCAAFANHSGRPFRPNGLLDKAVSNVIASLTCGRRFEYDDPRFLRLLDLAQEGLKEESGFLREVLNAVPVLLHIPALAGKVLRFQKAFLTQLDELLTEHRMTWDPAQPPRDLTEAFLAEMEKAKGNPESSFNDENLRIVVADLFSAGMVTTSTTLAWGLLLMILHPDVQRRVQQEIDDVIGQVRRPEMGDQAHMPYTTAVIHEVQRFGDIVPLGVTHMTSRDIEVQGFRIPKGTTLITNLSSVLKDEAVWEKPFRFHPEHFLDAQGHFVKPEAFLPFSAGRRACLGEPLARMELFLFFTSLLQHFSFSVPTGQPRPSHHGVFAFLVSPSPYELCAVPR
CYP2C9, sequence (P11712 whole entry): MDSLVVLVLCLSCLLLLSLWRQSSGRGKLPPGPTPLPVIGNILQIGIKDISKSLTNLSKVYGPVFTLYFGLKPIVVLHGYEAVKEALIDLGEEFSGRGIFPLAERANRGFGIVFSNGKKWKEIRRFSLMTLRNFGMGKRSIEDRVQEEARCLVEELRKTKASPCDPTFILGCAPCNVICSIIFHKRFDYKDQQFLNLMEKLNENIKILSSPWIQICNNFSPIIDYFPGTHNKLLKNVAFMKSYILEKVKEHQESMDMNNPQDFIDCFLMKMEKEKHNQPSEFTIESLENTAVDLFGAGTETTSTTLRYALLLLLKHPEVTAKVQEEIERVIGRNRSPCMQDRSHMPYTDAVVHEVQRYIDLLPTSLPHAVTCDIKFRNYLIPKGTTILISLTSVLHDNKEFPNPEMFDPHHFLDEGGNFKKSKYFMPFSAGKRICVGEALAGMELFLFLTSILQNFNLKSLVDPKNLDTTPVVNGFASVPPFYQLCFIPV

In the case of `NC(=O)c1sc(N2CCOCC2)cc1OCCc1ccccc1` [Compound 1, 5-Morpholino-3-phenethoxythiophene-2-carboxamide], the IC50 [1] is reported as over 100 µM, the IC50 [2] is reported as 1260 nM and the IC50 [3] is reported as over 100 µM. For the same molecule, the “P-glycoprotein (P-gp) efflux (in words)” value ([4]; MDCK-MDR1) was “no likely P-glycoprotein (P-gp) efflux issues”, the “permeability (in words)” value ([4]; MDCK-MDR1) was “good permeability” and the “P-gp Efflux B→ A/A → B” value ([4]; dog, MDCK) was 0.8. It also gave an MIC ([5]; Mycobacterium tuberculosis, H37RV, read-out: H37Rv MIC) of 0.13 µg/mL, an MIC90 ([5]; Mycobacterium tuberculosis, H37RV, read-out: MIC (MIC90)) of 0.72 µM (≈ 0.239 µg/mL) and an MIC ([5]; Mycobacterium tuberculosis, H37RV, read-out: MIC WT) of 1.3 µM. For the same molecule, the IC90 ([5]; Mycobacterium tuberculosis, H37RV, read-out: TB-IC90_OD GEOM_MEAN) was 608 nM, the “MIC (H37RvLP)” value ([5]; n = 14) was 0.72 ± 0.30 (n = 14) and the Cli mouse (female, CD1, mouse, pH 7.4) was 19 mL.min^–1.g^–1. For the same molecule, the “scaled Clpre” value (female, CD1, mouse, pH 7.4) was 81 mL/min/kg, the “CL mouse MEAN” value (mouse, microsomes) was 18.63 mL/min/g and the “Microsomal clearance, Mouse” value (mouse, microsomes) was “Mouse = 19 mL·min^−1·g^−1”. For the same molecule, the “in vitro mouse Clint” value (mouse, microsomes) was 19 mL/min/g, the IC50 [6] was over 10 µM and the IC50 [7] was 10 µM. The “Microsomal clearance, Human” value [8] was “Human = 3.5 mL·min^−1·g^−1”, the CLB [9] was 10 mL/min/kg and the T1/2 [9] was 42 min. It also gave a Papp A→B [10] of 45 ×10⁻⁶ cm/s, a Papp B→A [10] of 37 ×10⁻⁶ cm/s and an IC50 [11] of 7.94 µM. The AUC ([12]; iv, 3 mg/kg) was 4830 ng·h/mL and the bioavailability ([12]; po, 10 mg/kg) was 0.5%.

— PMC6089501 (Journal of Medicinal Chemistry, 2018)
